Data on 15 molecules can be found in patent US8445511B2, “Quinoline or quinoxaline derivatives for treating neurodegenerative diseases” (Centre National de la Recherche Scientifique (SNRS), priority 2008, dated 2013).

The test concerns fetal dopaminergic neurons in culture. Briefly: Neuroprotection and differentiation of dopaminergic (TH+) neurons in primary culture of rat embryo mesencephalon (spontaneous degeneration model). The class given is cell-based. Details: key to Diff (qualitative assessment of neuron differentiation): + indicates that the neurons have a morphology similar to that of the control; ++ and +++ indicate the presence of neurons whose extensions are longer and more numerous than the control neurons; ++ and +++ indicate the presence of neurons whose extensions are longer and more numerous than the control neurons; − indicates that the neurons have neurites that are shorter and less numerous than the control neurons. As to conditions: for Diff (qualitative assessment of neuron differentiation): dopaminergic neurons in culture; for viability at 0.1 µM: Rattus norvegicus, Neuron, 192 h, read-out: % Neurons relative to the control ±SEM. As to the method:
Dissection consists in extracting the embryos from the uterus of a rat at fifteen days of gestation. The brain of each embryo is then dissected under a binocular magnifier in order to extract the ventral mesencephalon.
The mesencephalons are gathered in a flask containing 2 ml of L15 medium and then mechanically dissociated (30 times), and then 5 ml of L15 medium are added. The suspension is left to rest for 8 minutes. 5 ml of the supernatant are recovered in a new flask and the cells are dissociated again (30 times). 5 ml of L15 are again added and the suspension is left to rest for 8 minutes. 5 ml of supernatant are added to the preceding. The cells thus extracted are then centrifuged for 5 minutes at 1,000 rpm. The cell pellet is taken up in Neurobasal medium supplemented with 1% B27, 1% glutamine and 1% penicillin/streptomycin mixture. The cells are then inoculated at the appropriate dilution (0.6 embryo per well on a 24-well plate and 0.4 per well on a 48-well plate). The cultures are incubated at 37° C. in a humid atmosphere enriched with 5% CO2 in a 24- or 48-well plate.
After 24 hours, two-thirds of the medium of each well is replaced by new medium enriched with the compound of the invention to test at the appropriate dilution. The medium is replaced in the same way after 4 days of culture.
At 8 days of culture, the cells are fixed by a 4% formaldehyde solution and then washed three times with PBS. The cells then undergo several immunohistochemistry procedures: • anti-tyrosine hydroxylase (TH) visualized by a secondary antibody coupled to a fluorochrome that emits in the red spectrum (Cy3). • anti-MAP2 (MAP=microtubule-associated protein) (neuron marker) visualized by a secondary antibody coupled to a fluorochrome that emits in the green spectrum (alexa488). • DAPI (4′,6-diamidino-2-phenylindole), a nuclear marker that emits in the blue spectrum.
Neuroprotection is evaluated by counting TH positive neurons directly under the microscope or MAP2 positive on images, at 15 images per well, expressed as a percentage of the untreated control. The experiments include three wells per condition. Three independent experiments are carried out under these conditions. Total neurite length per cell calculated by the Neurite Outgrowth software by Explora Nova on 20 neurons photographed independently per well gives an indication of the state of maturation of the dopaminergic neurons.
The compounds of the invention were tested on a model of spontaneous degeneration of dopaminergic neurons in culture.
This model consists of culturing cells of the ventral mesencephalon of rat embryo. This part of the brain in culture contains dopaminergic neurons and other primarily GABAergic neurons. These cultures are also composed of glial cells, namely astrocytes, oligodendrocytes and microglia. This is a model of spontaneous degeneration of dopaminergic neurons which mimics certain aspects of Parkinson's disease.
The neuroprotective effect of the compounds of the invention was evaluated by counting dopaminergic neurons (TH^+) marked by tyrosine hydroxylase (TH) immunohistochemistry after 8 days of culture. Thus the compounds were evaluated at 1 nM, 10 nM, 100 nM and 1 μM and were compared with the activity of dibutyryl cyclic AMP (db-cAMP) used as the reference product.
In order to evaluate more quantitatively the activity of the compounds of the invention, neurite growth per cell was measured using the Neurite Outgrowth software developed by Explora Nova. A minimum of 60 neurons per condition were photographed and studied, and the results were then averaged and normalized by the number of neurons considered.

Where [1] appears, read: 100 nM, survival of TH+ dopaminergic neurons after 8 days of culture.

Turning to `CCCCCCCCCCCCCCC(=O)Nc1ccc2nccnc2c1` [Compound F1, Nr-(quinoxalin-6-yl)pentadecanamide], the “Diff (qualitative assessment of neuron differentiation)” value (100 nM) is on record as “+++”. Besides, the viability at 0.1 µM under setting [1] was found to be 125 ± 5.5%.

Take `CCCCCCCCCCCCCCC(=O)Nc1ccc2nc(C)cnc2c1` [Compound F2, N-(2-methylquinoxalin-6-yl)pentadecanamide]: the “Diff (qualitative assessment of neuron differentiation)” value (100 nM) is given as “+++”. Moreover, the viability at 0.1 µM under setting [1] stood at 120 ± 3.1%.

Consider `CCCCCCCCCCCCCCC(=O)Nc1ccc2ncc(CCCC)nc2c1` [Compound F3, N-(3-butylquinoxalin-6-yl)pentadecanamide], for which the “Diff (qualitative assessment of neuron differentiation)” value (100 nM) is on record as “++”. In addition, the viability at 0.1 µM under setting [1] came out at 114 ± 3.8%.

For the molecule `CCCCCCCCCCCCCCC(=O)Nc1ccc2nc(CCCCCC)c(CCCC)nc2c1` [Compound F4, N-(2-hexyl-3-butylquinoxalin-6-yl)pentadecanamide], where the note is “100 nM”, the “Diff (qualitative assessment of neuron differentiation)” value is “++”. Besides, the viability at 0.1 µM under setting [1] was 101 ± 2.2%.

Turning to `CCCCCCCCCCCCCCCNc1ccc2nccnc2c1` [Compound G1, N-(quinoxalin-6-yl)pentadecanamine], the “Diff (qualitative assessment of neuron differentiation)” value (100 nM) was “+++”. In addition, the viability at 0.1 µM under setting [1] was 131 ± 10.9%.

As to `CCCCCCCCCCCCCCCNc1ccc2nc(C)cnc2c1` [Compound G2, N-(2-methylquinoxalin-6-yl)pentadecanamine], the “Diff (qualitative assessment of neuron differentiation)” value (100 nM) is recorded as “+++”. Also, under setting [1], the viability at 0.1 µM was determined as 135 ± 4.4%.

As for `CCCCCCCCCCCCCCCNc1ccc2ncc(CCCC)nc2c1` [Compound G3, N-(3-butylquinoxalin-6-yl)pentadecanamine], the “Diff (qualitative assessment of neuron differentiation)” value (100 nM) is “++”. Besides, under setting [1], the viability at 0.1 µM is 113 ± 7%.

Take `CCCCCCCCCCCCCCCNc1ccc2nc(CCCCCC)c(CCCC)nc2c1` [Compound G4, N-(2-hexyl-3-butylquinoxalin-6-yl)pentadecanamine]: the “Diff (qualitative assessment of neuron differentiation)” value (100 nM) was “++”. For the same molecule, under setting [1], the viability at 0.1 µM came to 111 ± 5.3%.

`OCCCCCCCCCCCCCCCNc1ccc2nccnc2c1` [Compound G5, 15-hydroxy-N-(quinoxalin-6-yl)pentadecylamine]: under “100 nM”, the “Diff (qualitative assessment of neuron differentiation)” value is “++”. Further, the viability at 0.1 µM under setting [1] was found to be 130 ± 7%.

For the molecule `OCCCCCCCCCCCC#Cc1ccc2ccccc2n1` [Compound K2, 13-(quinolin-2-yl)tridec-12-yn-1-ol], the “Diff (qualitative assessment of neuron differentiation)” value (100 nM) is “++”. Also, under setting [1], the viability at 0.1 µM came out at 121 ± 3.1%.

In the case of `C#CC(O)CCCCCCCCCCCCCCc1ccc2ccccc2n1` (stereo not drawn) [Compound N′3, 17-(quinolin-2-yl)heptadec-1-yn-3-ol], the “neuroprotective activity (percentage of survival of dopaminergic neurons), in words, versus reference product db-cAMP” value (dopaminergic neurons, 8 days of culture) was “equal to or greater than that of the reference product”.

Regarding `C#CC(O)CCC#Cc1cnc2ccccc2c1` (stereo not drawn) [Compound Z1, reference compound], the “dose-response of effect on survival of dopaminergic neurons” value (1 nM, 10 nM, 100 nM and 1 μM, FIG. 2) is recorded as “zero at all the concentrations tested”. The “Diff (qualitative assessment of neuron differentiation)” value (100 nM) is “−”. The viability at 0.1 µM under setting [1] is 98.2 ± 6.3%.

Take `C#CC(O)CCCCc1cnc2ccccc2c1` (stereo not drawn) [Compound Z2, reference compound]: where the note is “100 nM”, the “Diff (qualitative assessment of neuron differentiation)” value is “+”. Moreover, the viability at 0.1 µM under setting [1] came out at 118 ± 6.1%.

As for `CCCCC#Cc1cnc2ccccc2c1` [Compound Z3, reference compound], the “Diff (qualitative assessment of neuron differentiation)” value (100 nM) is “−”. Moreover, under setting [1], the viability at 0.1 µM is 104 ± 4.2%.

In the case of `CCCC(=O)Nc1ncnc2c1ncn2[C@@H]1O[C@@H]2COP(=O)(O)O[C@H]2[C@H]1OC(=O)CCC` [db-cAMP, dibutyryl cyclic AMP, reference compound], where the note is “100 nM”, the “Diff (qualitative assessment of neuron differentiation)” value is on record as “+++”. For the same molecule, under setting [1], the “% Neurons relative to the control ±SEM” value was 149.9 ± 3.6%.
